{"source": "patent US20060239990A1", "about": "“Protein Arginine N-Methyltransferase 2 (PRMT-2)” (priority 2003, published 2006)", "key": {"[1]": {"system": "HIV-1 LTR", "assay": "HIV-1 reporter transcription, transient co-transfection", "format": "cell-based, human", "details": "293T cells, expression plasmid co-transfected with HIV-1 reporter plasmid", "procedure": "Cell culture, transfection, and reporter gene assays. The E1A-transformed, human kidney cell line, 293, and NIH-3T3 cells were maintained in Dulbecco's Modified Eagle Medium (DMEM) supplemented with 10% fetal calf serum and penicillin-streptomycin at 37° C. in 5% carbon dioxide in tissue culture grade Petri dishes. PRMT-2−/− mouse embryo fibroblasts (MEFs) and wild type MEFs were prepared from day 13.5 embryos and maintained in DMEM supplemented with 10% fetal calf serum. MEFs at passage 4 were used in this experiment. Lipofectamine Plus™ reagent (Boehringer Mannheim) was used to transfect both 293 and NIH-3T3 cells according to directions from the manufacturer. […] TNF-α stimulation of cells was done using recombinant TNF-α (200 U/ml) for 12 hours. Transfected cells were harvested at 36 hours, and CAT activity was assayed on 10 to 100 μg of protein from whole cell extracts. CAT assays were performed essentially as described in Leung, K. & Nabel, G. J. Nature 333, 776-778 (1988). To analyze the κB-reporter activity in MEFs, cells were transfected with the reporter (2×kB-Luc) and PRL-TK vector (Promega) using FuGENE6 transfection reagent (Roche). Luciferase activity was analyzed by Dual-Luciferase Reporter Assay System (Promega). […]"}, "[2]": {"target": "T1, RB (Homo sapiens, UniProt P06400)", "T1 construct": "coding region of RB cDNA was subcloned into pGEX-6P (Amersham/Pharmacia) for generation of GST-RB; made in house", "T1 sequence (P06400 1-928)": "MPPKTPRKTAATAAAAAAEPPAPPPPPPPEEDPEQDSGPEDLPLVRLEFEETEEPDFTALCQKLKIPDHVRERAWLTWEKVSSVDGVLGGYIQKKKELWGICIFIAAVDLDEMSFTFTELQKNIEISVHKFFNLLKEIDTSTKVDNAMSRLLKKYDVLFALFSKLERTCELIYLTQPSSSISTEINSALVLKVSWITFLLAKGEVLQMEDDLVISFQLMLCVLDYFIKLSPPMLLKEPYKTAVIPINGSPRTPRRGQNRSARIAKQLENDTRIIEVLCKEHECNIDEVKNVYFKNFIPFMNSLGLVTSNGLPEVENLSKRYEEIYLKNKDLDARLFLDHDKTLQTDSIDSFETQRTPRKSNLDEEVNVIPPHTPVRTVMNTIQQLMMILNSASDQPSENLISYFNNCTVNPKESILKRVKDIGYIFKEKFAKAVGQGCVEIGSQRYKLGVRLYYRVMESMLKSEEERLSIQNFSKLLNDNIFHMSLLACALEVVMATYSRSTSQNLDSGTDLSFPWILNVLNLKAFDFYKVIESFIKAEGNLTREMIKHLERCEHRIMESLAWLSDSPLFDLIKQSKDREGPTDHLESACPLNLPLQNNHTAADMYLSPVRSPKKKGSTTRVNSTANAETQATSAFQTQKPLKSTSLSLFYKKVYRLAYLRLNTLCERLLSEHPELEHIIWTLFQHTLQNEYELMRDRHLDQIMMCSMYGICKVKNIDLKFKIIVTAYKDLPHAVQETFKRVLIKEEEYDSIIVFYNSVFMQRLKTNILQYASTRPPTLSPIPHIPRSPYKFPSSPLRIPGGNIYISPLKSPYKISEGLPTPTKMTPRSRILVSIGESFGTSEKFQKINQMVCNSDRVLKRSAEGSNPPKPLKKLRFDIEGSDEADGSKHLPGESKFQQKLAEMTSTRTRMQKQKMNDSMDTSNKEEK", "assay": "In vitro binding assay with GST-RB", "details": "S35-labeled in vitro translated protein", "procedure": "The crude cell lysate of the GST-fusion proteins was prepared and purified according to the manufacture's protocol (Amersham/Pharmacia). [^35S]-methionine-labeled protein was produced by in vitro transcription/translation using the TNT T7-coupled reticulocyte lysate system (Promega). [^35S]-methionine-labeled protein and GST-fusion protein bound to glutathione sepharose 4B beads were incubated in 500 μl of HNE buffer (50 mM Hepes, pH 7.8, 150 mM NaCl, 1 mM EDTA, 1 mM DTT, 1% NP40, and 1× protease inhibitor mix (Complete: Roche)) at 4° C. for 1 hour. Beads were washed four times with HNE buffer, and then analyzed on an SDS-PAGE gradient gel (4-15%). For the detection of endogenous PRMT-2 interaction with RB, MEFs were lysed with WCL buffer (50 mM Hepes, pH 7.8, 400 mM NaCl, 2 mM EDTA, 1 mM DTT, 0.2% NP40, 10% Glycerol, 20 mM α-glycerophosphate, 5 mM NaF, 0.1 mM NaVO4, and 1× protease inhibitor mix). Then, 1 mg of whole cell extracts were incubated with HNE buffer without DTT and 3 μg of antibodies as indicated. The immune complexes were isolated using protein G beads, and washed four times with HNE buffer. The precipitated protein was boiled with SDS-loading buffer and resolved on SDS-PAGE. […]"}, "[3]": {"system": "Stat3", "assay": "Leptin-stimulated Stat3 tyrosine phosphorylation in VSMC nuclear extracts", "format": "cell-based, mouse", "details": "o-vanadate 200 μM pretreatment 15 min", "procedure": "Cytoplasmic/nuclear extracts were prepared by Dounce homogenizing cells in Cytoplasmic lysis buffer (20 mM HEPES, pH7.9, 10 mM KCl, 1 mM MgCl2, 1% NP-40, 10% glycerol, 100 mM NaF, 1 mM Na3VO4, 1× protease inhibitors cocktail), and sedimenting nuclei by centrifugation at 1,000 rpm for 5 min. The supernatants were removed as samples of cytoplasmic fraction. The nuclei were extracted with nuclear lysis buffer (20 mM HEPES, pH7.9, 300 mM NaCl, 10 mM KCl, 1 mM MgCl2, 1% […], 10% glycerol, […], 1 mM Na3VO4, 1× protease inhibitors cocktail), and then subjected to the immunoblotting.\nImmunoblotting was performed by boiling samples for 5 min at 95° C. followed by centrifugation for 1 min at 4° C. Aliquots of the supernatant were subjected to 7.5, 10% or 4-15% SDS-PAGE. Proteins in the gel were transferred to a nitrocellulose membrane by electroblotting. The membranes were treated with either anti-pTyr, anti-STAT3, anti-phospho STAT3, anti-α-metR, anti-IRS-1, anti-Flag, anti-phospho IRS-1, anti-arginine (mono- and di-methyl), or anti-β-actin antibodies followed by incubation with secondary antibodies conjugated with HRP. Immunoreactive proteins were detected either by ECL or by ECL plus system (Amersham Pharmacia Biotech). In some cases, bands were quantified using the NIH Image software (Image J version 1.2; National Institutes of Health, Bethesda, Md.). […]"}, "[4]": {"system": "IκBα", "assay": "Confocal quantification of nuclear IκBα in PRMT2−/− fibroblasts", "format": "cell-based, mouse", "details": "after TNF-α 30 min, 30 minutes LMB", "procedure": "Immunohistochemistry and confocal microscopy. PRMT2^−/− fibroblasts were transfected with a HA-tagged PRMT2 expression vector. 36 hrs after transfection the cells were treated with TNF-α for 30 min. The media was then removed and cells were incubated for an additional 30 minutes in the presence or absence of LMB. Cells were fixed, permeabilized with CytoFix-CytoPerm (BD Biosciences) for 20 minutes, and washed with Perm/Wash buffer (BD Biosciences). IκBα (Rabbit Polyclonal antibody, 1:1000; Santa Cruz Biotechnology) and HA (Rat Monoclonal antibody, 1:500; Roche) were diluted in Perm/Wash buffer and incubated for 1 hr. After two washes cells were stained with anti rabbit Alexa 488 and anti rat Alexa […] (1:1000, Invitrogen) for 30 min. Cells were washed and mounted with Ultracruz mounting media (Santa Cruz) containing DAPI. Confocal microscopy was performed using a Leica confocal microscope."}}}
{"compound": "PRMT1: human protein arginine methyltransferase 1, expression construct [reference compound]", "values": [{"measurement": "stimulation of HIV-1 transcription", "setting": "[1]", "value": "about 10 fold"}, {"measurement": "binding to RB", "setting": "[2]", "value": "do not bind RB"}]}
{"compound": "[O]=[V]([O-])([O-])[O-]", "note": "[o-vanadate]", "values": [{"measurement": "leptin-stimulated tyrosine phosphorylation of Stat3", "setting": "[3]; PRMT2−/− VSMC nuclear extracts", "value": "no enhancement of tyrosine phosphorylation of Stat3"}, {"measurement": "leptin-stimulated tyrosine phosphorylation of Stat3", "setting": "[3]; wild-type VSMC nuclear extracts", "value": "further enhanced leptin-stimulated tyrosine phosphorylation of Stat3"}]}
{"compound": "CCC(=C/[C@H](C)C/C=C/C(C)=C/[C@@H](C)C(=O)[C@@H](C)[C@H](O)[C@@H](C)C/C(C)=C/C(=O)O)/C=C/[C@@H]1OC(=O)C=C[C@@H]1C", "note": "[LMB, leptomycin B]", "values": [{"measurement": "nuclear IκBα", "setting": "[4]", "value": "promoted nuclear accumulation of IκBα"}]}
